Laboratory results reported in PubChem BioAssay (NCI).
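Compound exposure: 48 hours, 5 concentrations, 96-well plates. The concentration for full growth arrest is given as TGI.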 Where a SMILES comes first, the peptide text is derived from it. The star is where a group is joined. Cbz = O=C(OCc1ccccc1)*

Tests used:
Assay in all cases: NCI anticancer screen, dose series, 48 h
A549 NSCLC = test system: A549 NSCLC
UACC-62 melanoma = test system: UACC-62 melanoma
DU-145 prostate = test system: DU-145 prostate
LOX IMVI melanoma = test system: LOX IMVI melanoma
HL-60(TB) leukemia = test system: HL-60(TB) leukemia
OVCAR-3 ovarian = test system: OVCAR-3 ovarian
SF-268 CNS = test system: SF-268 CNS
RPMI-8226 leukemia = test system: RPMI-8226 leukemia
KM12 colon = test system: KM12 colon
NCI-H23 lung = test system: NCI-H23 lung
HOP-62 NSCLC = test system: HOP-62 NSCLC
HCC-2998 colon = test system: HCC-2998 colon
SW-620 colon = test system: SW-620 colon

O=c1[nH]c2nc3ccccc3c(=O)n2/c1=C/c1cccs1
TGI (A549 NSCLC): > 100 µM
TGI (UACC-62 melanoma): > 100 µM
TGI (DU-145 prostate): > 100 µM
TGI (LOX IMVI melanoma): > 100 µM
TGI (HL-60(TB) leukemia): > 100 µM
TGI (OVCAR-3 ovarian): > 100 µM
TGI (SF-268 CNS): > 100 µM
TGI (RPMI-8226 leukemia): > 100 µM
TGI (KM12 colon): > 100 µM
TGI (NCI-H23 lung): > 100 µM
TGI (HOP-62 NSCLC): > 100 µM
TGI (HCC-2998 colon): > 100 µM
TGI (SW-620 colon): > 100 µM

CC(NC(=O)c1c(O)[nH]c(=S)[nH]c1=O)c1ccc([N+](=O)[O-])cc1 (centres undefined)
TGI (A549 NSCLC): > 100 µM
TGI (UACC-62 melanoma): > 100 µM
TGI (DU-145 prostate): > 100 µM
TGI (LOX IMVI melanoma): > 100 µM
TGI (HL-60(TB) leukemia): > 100 µM
TGI (OVCAR-3 ovarian): > 100 µM
TGI (SF-268 CNS): > 100 µM
TGI (RPMI-8226 leukemia): > 100 µM
TGI (KM12 colon): > 100 µM
TGI (NCI-H23 lung): > 100 µM
TGI (HOP-62 NSCLC): > 100 µM
TGI (HCC-2998 colon): > 100 µM
TGI (SW-620 colon): > 100 µM

N#Cc1cc2c(cc1Cl)Sc1nnc(Nc3ccccc3)n1S2(=O)=O
TGI (A549 NSCLC): 16 µM
TGI (UACC-62 melanoma): 3.58 µM
TGI (DU-145 prostate): 5.2 µM
TGI (LOX IMVI melanoma): 3.75 µM
TGI (HL-60(TB) leukemia): 13.6 µM
TGI (OVCAR-3 ovarian): 3.82 µM
TGI (SF-268 CNS): 10.5 µM
TGI (RPMI-8226 leukemia): 9.17 µM
TGI (KM12 colon): 4.65 µM
TGI (NCI-H23 lung): 3.26 µM
TGI (HOP-62 NSCLC): 3.36 µM
TGI (HCC-2998 colon): 3 µM
TGI (SW-620 colon): 3.13 µM

O=C1OCC2OC(=O)c3cc(O)c(O)c(O)c3-c3c(O)c(O)c(O)c4c3C(=O)OC(C2OC(=O)c2cc(O)c(O)c(O)c2-c2c1cc(O)c(O)c2O)C1OC(=O)C2C4=C(O)C(=O)C23Oc2cc(O)c4c(c2[C@H]13)O[C@H](c1ccc(O)c(O)c1)[C@@H](O)C4 (some centres undefined)
TGI (A549 NSCLC): > 100 µM
TGI (UACC-62 melanoma): 45.6 µM
TGI (DU-145 prostate): > 100 µM
TGI (LOX IMVI melanoma): 38.3 µM
TGI (HL-60(TB) leukemia): 51.8 µM
TGI (OVCAR-3 ovarian): 83.4 µM
TGI (SF-268 CNS): 50.7 µM
TGI (RPMI-8226 leukemia): 64.4 µM
TGI (KM12 colon): > 100 µM
TGI (NCI-H23 lung): 47.3 µM
TGI (HOP-62 NSCLC): > 100 µM
TGI (HCC-2998 colon): > 100 µM
TGI (SW-620 colon): 53.5 µM

CN1CCc2c(sc3[nH]c(=S)[nH]c(=S)c23)C1
TGI (A549 NSCLC): > 100 µM
TGI (UACC-62 melanoma): > 100 µM
TGI (DU-145 prostate): > 100 µM
TGI (LOX IMVI melanoma): > 100 µM
TGI (HL-60(TB) leukemia): > 100 µM
TGI (OVCAR-3 ovarian): > 100 µM
TGI (SF-268 CNS): > 100 µM
TGI (RPMI-8226 leukemia): > 100 µM
TGI (KM12 colon): > 100 µM
TGI (NCI-H23 lung): > 100 µM
TGI (HOP-62 NSCLC): > 100 µM
TGI (SW-620 colon): > 100 µM

COCn1cnc2c(=O)nc(SC)n(-c3ccccc3)c21
TGI (A549 NSCLC): > 100 µM
TGI (UACC-62 melanoma): > 100 µM
TGI (DU-145 prostate): > 100 µM
TGI (LOX IMVI melanoma): > 100 µM
TGI (HL-60(TB) leukemia): > 100 µM
TGI (OVCAR-3 ovarian): > 100 µM
TGI (SF-268 CNS): > 100 µM
TGI (RPMI-8226 leukemia): > 100 µM
TGI (KM12 colon): > 100 µM
TGI (NCI-H23 lung): > 100 µM
TGI (HOP-62 NSCLC): > 100 µM
TGI (HCC-2998 colon): > 100 µM
TGI (SW-620 colon): > 100 µM

COC(=O)N[C@H](C(=O)NC(OCc1ccccc1)C1COC(C)(C)O1)C(C)O[Si](C)(C)C(C)(C)C (some centres undefined)
TGI (A549 NSCLC): > 100 µM
TGI (DU-145 prostate): > 100 µM
TGI (HL-60(TB) leukemia): > 100 µM
TGI (SF-268 CNS): > 100 µM
TGI (RPMI-8226 leukemia): > 100 µM
TGI (NCI-H23 lung): > 100 µM
TGI (HOP-62 NSCLC): > 100 µM
TGI (HCC-2998 colon): > 100 µM
TGI (SW-620 colon): > 100 µM

CCOC(=O)CCC(NC(=O)C(Cc1ccccc1)NC(=O)OCc1ccccc1)C(=O)OCC (stereo not drawn) (Cbz-Phe-Glu(OEt)-OEt; configuration not given here)
TGI (A549 NSCLC): 36.9 µM
TGI (UACC-62 melanoma): 32.5 µM
TGI (DU-145 prostate): 22.3 µM
TGI (LOX IMVI melanoma): 27.9 µM
TGI (HL-60(TB) leukemia): 41.2 µM
TGI (OVCAR-3 ovarian): 28.6 µM
TGI (SF-268 CNS): 34.5 µM
TGI (RPMI-8226 leukemia): > 76 µM
TGI (KM12 colon): 32.6 µM
TGI (NCI-H23 lung): 33.1 µM
TGI (HOP-62 NSCLC): 32.5 µM
TGI (HCC-2998 colon): 32.1 µM
TGI (SW-620 colon): 34.9 µM

CC1CC(Nc2ccc(Br)cc2)N(C(=O)c2ccc(Br)cc2)O1 (centres undefined)
TGI (A549 NSCLC): > 10 µM
TGI (DU-145 prostate): > 10 µM
TGI (HL-60(TB) leukemia): > 10 µM
TGI (OVCAR-3 ovarian): > 10 µM
TGI (SF-268 CNS): > 10 µM
TGI (RPMI-8226 leukemia): > 10 µM
TGI (NCI-H23 lung): > 10 µM
TGI (HOP-62 NSCLC): > 10 µM
TGI (HCC-2998 colon): > 10 µM
TGI (SW-620 colon): > 10 µM
